Reference: US20260022143A1, “Cyclic Peptide Inhibitors of IL-23” (JANSSEN PHARMACEUTICA NV, priority 2022, published 2026)
Starred links: 1 amine or outer side, 2 acyl side, 3 side chain; linkers in the order of their positions; H or OH if unused. Positions of bridges follow the written chain, without caps; N, C: chain ends. Non-standard residues stand in square brackets, D forms with d. Residues, ends and D or L forms follow the SMILES beside them. Groups on a side chain read outwards from the residue. *: point of attachment. X13 = C[N+]1(Cc2cn(-c3ccc(C[C@H](N[*:1])C(=O)[*:2])cc3)nn2)CCOCC1; Me3N+(CH2)2O(CH2)2O(CH2)2CO = C[N+](C)(C)CCOCCOCCC(=O)*; Trp(7-Me) = Cc1cccc2c(C[C@H](N)C(=O)O)c[nH]c12; γGlu = O=C(O)[C@H](CCC(=O)[*:2])N[*:1]; 2Nal = N[C@@H](Cc1ccc2ccccc2c1)C(=O)O; AEF = NCCOc1ccc(C[C@H](N)C(=O)O)cc1; dNMeY = CN[C@H](Cc1ccc(O)cc1)C(=O)O; 3Pal = N[C@@H](Cc1cccnc1)C(=O)O; Myristoyl = CCCCCCCCCCCCCC(=O)*; d3Pal = N[C@H](Cc1cccnc1)C(=O)O; Lys(Me) = CNCCCC[C@H](N)C(=O)O; NMeK = CN[C@@H](CCCCN)C(=O)O; Pen = CC(C)(S)[C@H](N)C(=O)O; αMeK = C[C@](N)(CCCCN)C(=O)O; Thp = NC1(C(=O)O)CCOCC1; X3 = C[N+](C)(C)CCCCC*; X76 = N=C(N)NCCOCCOCC*; AEEA = NCCOCCOCC(=O)O; Me2NCH2CH2 = CN(C)CC*; Sar = CNCC(=O)O

Test: Exposed Polar Surface Area (EPSA)
Format: physicochemical
Settings: SFC on Chirex 3014 column; sample 1 mM DMSO stock; read-out: EPSA
Outline: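 EPSA, in Å^2, is read from SFC retention time through a linear relationship established with eight calibration standards. Separation uses a Chirex 3014 stationary phase, 35 °C, 14 MPa back pressure, and a 5–60% methanol/ammonium formate modifier gradient in CO2.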

Row | EPSA [A^2] | Compound
1 | 186 | CCCCCCCCCCCCCC(=O)N[C@@H](CCC(=O)NCCOCCOCC(=O)NCCOCCOCC(=O)NCCCC[C@@H]1NC(=O)[C@H](Cc2c[nH]c3c(C)cccc23)NC(=O)[C@H]([C@@H](C)O)NC(=O)[C@H](CC(=O)N(C)C)NC(=O)[C@@H](NC(=O)CCOCCOCC[N+](C)(C)C)C(C)(C)SSC(C)(C)[C@@H](C(=O)N[C@@H](Cc2ccc(OCCCCC[N+](C)(C)C)cc2)C(=O)N[C@@H](Cc2ccc3ccccc3c2)C(=O)NC2(C(=O)N[C@@H](CCCCN(C)C(C)=O)C(=O)N[C@@H](CC(N)=O)C(=O)N[C@@H](Cc3cccnc3)C(=O)N(C)[C@@H](CCCCNC(=O)COCCOCCNC(=O)COCCOCCNC(=O)CC[C@H](NC(=O)CCCCCCCCCCCCC)C(=O)O)C(N)=O)CCOCC2)NC1=O)C(=O)O [compound 355, cPEG3aCO-Pen(3)-N(N(Me)2)-T-7MeW-K(PEG2PEG2gEC14)-Pen(3)-TMAPF-2Nal-THP-K(NMeac)-N-3Pya-NMeK(PEG2PEG2gEC14)-CONH2] ({Me3N+(CH2)2O(CH2)2O(CH2)2CO}-[Pen]D(NMe2)T[Trp(7-Me)]K([AEEA-AEEA-γGlu-Myristoyl])[Pen]Y(X3)[2Nal][Thp][Lys(Me)](Ac)N[3Pal][NMeK]([AEEA-AEEA-γGlu-Myristoyl])-NH2; disulfide 1-6)
2 | 153 | CC(=O)N[C@@H]1C(=O)N[C@@H](CC(=O)N(C)C)C(=O)N[C@@H]([C@@H](C)O)C(=O)N[C@@H](Cc2c[nH]c3c(C)cccc23)C(=O)N[C@@H](CCC(=O)N(C)C)C(=O)N[C@H](C(=O)N[C@@H](Cc2ccc(OCCN(C)C)cc2)C(=O)N[C@@H](Cc2ccc3ccccc3c2)C(=O)NC2(C(=O)N[C@@H](CCC(=O)O)C(=O)N[C@@H](CC(N)=O)C(=O)N[C@@H](Cc3cccnc3)C(=O)N(C)CC(=O)N(C)C)CCOCC2)C(C)(C)SSC1(C)C [compound 120, MeCO-Pen(3)-N(N(Me)2)-T-7MeW-Q(N(Me)2)-Pen(3)-AEF(N(Me)2)-2Nal-THP-E-N-3Pya-Sar-CON(Me)2] (Ac-[Pen]D(NMe2)T[Trp(7-Me)]E(NMe2)[Pen]Y(Me2NCH2CH2)[2Nal][Thp]EN[3Pal][Sar]-NMe2; disulfide 1-6)
3 | 167 | CC(=O)NCCCC[C@H](NC(=O)[C@H](CCC(=O)O)NC(=O)C1(NC(=O)[C@H](Cc2ccc3ccccc3c2)NC(=O)[C@H](Cc2ccc(-n3cc(C[N+]4(C)CCOCC4)nn3)cc2)NC(=O)[C@H]2NC(=O)[C@H](CCCCNC(C)=O)NC(=O)[C@H](Cc3c[nH]c4c(C)cccc34)NC(=O)[C@H]([C@@H](C)O)NC(=O)[C@H](CC(N)=O)NC(=O)[C@@H](NC(C)=O)C(C)(C)SSC2(C)C)CCOCC1)C(=O)N[C@@H](Cc1cccnc1)C(=O)N(C)CC(N)=O [compound 460] (Ac-[Pen]NT[Trp(7-Me)]K(Ac)[Pen][X13][2Nal][Thp]EK(Ac)[3Pal][Sar]-NH2; disulfide 1-6)
4 | 151 | CC(=O)N(C)CCCC[C@H](NC(=O)C1(NC(=O)[C@H](Cc2ccc3ccccc3c2)NC(=O)[C@H](Cc2ccc(OCCCCC[N+](C)(C)C)cc2)NC(=O)[C@H]2NC(=O)[C@H](CCC(=O)N(C)C)NC(=O)[C@H](Cc3c[nH]c4c(C)cccc34)NC(=O)[C@H]([C@@H](C)O)NC(=O)[C@H](CC(=O)N(C)C)NC(=O)[C@@H](NC(=O)CCOCCOCC[N+](C)(C)C)C(C)(C)SSC2(C)C)CCOCC1)C(=O)N[C@@H](CC(N)=O)C(=O)N[C@@H](Cc1cccnc1)C(=O)N(C)CC(=O)N(C)C [compound 312, cPEG3aCO-Pen(3)-N(N(Me)2)-T-7MeW-Q(N(Me)2)-Pen(3)-TMAPF-2Nal-THP-K(NMeAC)-N-3Pya-Sar-CON(Me)2] ({Me3N+(CH2)2O(CH2)2O(CH2)2CO}-[Pen]D(NMe2)T[Trp(7-Me)]E(NMe2)[Pen]Y(X3)[2Nal][Thp][Lys(Me)](Ac)N[3Pal][Sar]-NMe2; disulfide 1-6)
5 | 166 | CC(=O)NCCCC[C@@H]1NC(=O)[C@H](Cc2c[nH]c3c(C)cccc23)NC(=O)[C@H]([C@@H](C)O)NC(=O)[C@H](CC(N)=O)NC(=O)[C@@H](NC(C)=O)C(C)(C)SSC(C)(C)[C@@H](C(=O)N[C@@H](Cc2ccc(OCCN)cc2)C(=O)N[C@@H](Cc2ccc3ccccc3c2)C(=O)N[C@@](C)(CCCCN)C(=O)N[C@@H](CCCCNC(C)=O)C(=O)N[C@@H](CC(N)=O)C(=O)N[C@H](Cc2cccnc2)C(=O)N(C)[C@H](Cc2ccc(O)cc2)C(N)=O)NC1=O [compound 32, MeCO-Pen(3)-N-T-7MeW-K(Ac)-Pen(3)-AEF-2Nal-aMeK-K(ac)-N-3pya-NMeDTyr-CONH2] (Ac-[Pen]NT[Trp(7-Me)]K(Ac)[Pen][AEF][2Nal][αMeK]K(Ac)N[d3Pal][dNMeY]-NH2; disulfide 1-6)
6 | 167 | CC(=O)N[C@@H]1C(=O)N[C@@H](CC(N)=O)C(=O)N[C@@H]([C@@H](C)O)C(=O)N[C@@H](Cc2c[nH]c3c(C)cccc23)C(=O)N[C@@H](CCCCN(C)C(C)=O)C(=O)N[C@H](C(=O)N[C@@H](Cc2ccc(OCCN)cc2)C(=O)N[C@@H](Cc2ccc3ccccc3c2)C(=O)NC2(C(=O)N[C@@H](CCCCN(C)C(C)=O)C(=O)N[C@@H](CC(N)=O)C(=O)N[C@@H](Cc3cccnc3)C(=O)N(C)CC(N)=O)CCOCC2)C(C)(C)SSC1(C)C [compound 280] (Ac-[Pen]NT[Trp(7-Me)][Lys(Me)](Ac)[Pen][AEF][2Nal][Thp][Lys(Me)](Ac)N[3Pal][Sar]-NH2; disulfide 1-6 (inferred))
7 | 170 | CC(=O)NCCCC[C@@H]1NC(=O)[C@H](Cc2c[nH]c3c(C)cccc23)NC(=O)[C@H]([C@@H](C)O)NC(=O)[C@H](CC(N)=O)NC(=O)[C@@H](NC(C)=O)C(C)(C)SSC(C)(C)[C@@H](C(=O)N[C@@H](Cc2ccc(OCCN)cc2)C(=O)N[C@@H](Cc2ccc3ccccc3c2)C(=O)N[C@@](C)(CCCCN)C(=O)N[C@@H](CCCCNC(C)=O)C(=O)N[C@@H](CC(N)=O)C(=O)N[C@@H](Cc2ccccc2)C(=O)N(C)[C@H](Cc2ccc(O)cc2)C(N)=O)NC1=O [compound 7, MeCO-Pen(3)-N-T-7MeW-K(Ac)-Pen(3)-AEF-2Nal-aMeK-K(Ac)-N-F-NMeDTyr-CONH2] (Ac-[Pen]NT[Trp(7-Me)]K(Ac)[Pen][AEF][2Nal][αMeK]K(Ac)NF[dNMeY]-NH2; disulfide 1-6)
8 | 157 | CC(=O)N(C)CCCC[C@@H]1NC(=O)[C@H](Cc2c[nH]c3c(C)cccc23)NC(=O)[C@H]([C@@H](C)O)NC(=O)[C@H](CC(=O)N(C)C)NC(=O)[C@@H](NC(=O)CCOCCOCC[N+](C)(C)C)C(C)(C)SSC(C)(C)[C@@H](C(=O)N[C@@H](Cc2ccc(OCCOCCOCCNC(=N)N)cc2)C(=O)N[C@@H](Cc2ccc3ccccc3c2)C(=O)NC2(C(=O)N[C@@H](CCCCN(C)C(C)=O)C(=O)N[C@@H](CC(N)=O)C(=O)N[C@@H](Cc3cccnc3)C(=O)N(C)CC(=O)N(C)C)CCOCC2)NC1=O [compound 405, cPEG3aCO-Pen(3)-N(N(Me)2)-T-7MeW-K(NMeAc)-Pen(3)-GPEG3F-2Nal-THP-K(NMeAc)-N-3Pya-Sar-CON(Me)2] ({Me3N+(CH2)2O(CH2)2O(CH2)2CO}-[Pen]D(NMe2)T[Trp(7-Me)][Lys(Me)](Ac)[Pen]Y(X76)[2Nal][Thp][Lys(Me)](Ac)N[3Pal][Sar]-NMe2; disulfide 1-6)
